# In PMC10224544, “Synthesis, Structural Elucidation and Pharmacological Applications of Cu(II) Heteroleptic Carboxylates” (Pharmaceuticals, 2023):
# Like-named read-outs stand apart in the source and are kept apart here.
# What was measured:
# [1] = target: butyrylcholinesterase (BChE) (Equus caballus, UniProt P81908); experiment: biochemical; details: for inhibition at 62.5 µg/mL / inhibition at 125 µg/mL / inhibition at 250 µg/mL / inhibition at 500 µg/mL / inhibition at 1000 µg/mL: read-out: inhibition of butyrylcholinesterase (% BChE activity)
# Method: (§1) The enzymes acetylcholinesterase (AChE) and butyrylcholinesterase (BChE) play an important role in the transfer of signals and physiological function. They assist acetylcholine to hydrolyze and produce choline and acetyl group in synaptic region. So, they are considered as targets in the management of Alzheimer’s disease. Herein, the compounds under study were evaluated for their potential to inhibit acetylthiocholine iodide (AChI) and butyrylthiocholine iodide (BChI) enzymes.
# (§2) The well-known Ellman’s assay was implemented to evaluate the inhibitory potential using acetylthiocholine iodide (AChI) and butyrylthiocholine iodide (BChI) as substrates, respectively. The basic principle of the assay is the hydrolysis of acetylthiocholine iodide and butyrylthiocholine iodide by their corresponding enzymes, resulting in the formation of 5-thio-2-nitrobenzoate anion.
# (§3) To carry out the assay, 0.1 M buffer solution with pH 8 was prepared as per the cited literature where the pH was adjusted using KOH (potassium hydroxide). Using the freshly prepared buffer and following the dilution, final concentrations of 0.03 U/mL for AChE (518 U/mg solid) and 0.01 U/mL for BChE (7–16 U/mg) were obtained. […] After that, the final solution of each of the AChE and BChE was prepared in distilled water in the presence of […] DTNB and were stored at 8 °C. The experiment was performed by taking 205 µL of inhibitor (tested compound) along with 5 µL of prepared solutions of enzymes, followed by the addition of 5 μL DTNB reagent. They were then incubated for about 15 min in a water bath at a temperature of 30 °C. Later on, 5 µL substrate solution was added to them which were subjected to absorption check at 412 nm. […] The temperature of the spectrophotometer was adjusted at 30 °C and then, following the reaction time of 4 min, the absorbance values were noted after regular intervals. The experiment was repeated, and change in absorption with time was used to calculate the percentage activity of enzyme and enzyme inhibitor [59]. The p values, or calculated probability levels, are categorized as: 5% (p < 0.05), 1% (p < 0.01) and 0.1% (p < 0.001). p < 0.05 means statistically significant and p < 0.001 means highly statistically significant.
# [2] = target: acetylcholinesterase (AChE) (Electrophorus electricus, UniProt O42275); experiment: biochemical; assay type: biochemical; details: for inhibition at 62.5 µg/mL / inhibition at 125 µg/mL / inhibition at 250 µg/mL / inhibition at 500 µg/mL / inhibition at 1000 µg/mL: read-out: Inhibition of Acetylcholinesterase (%AChE Activity)
# Method: The synthesized compounds were evaluated for acetylcholinesterase (ACh) and butyrylcholinesterase (BCh) enzyme inhibitory activities.
# as §1, §2, §3
# Chain of acetylcholinesterase (AChE) (O42275 24-633): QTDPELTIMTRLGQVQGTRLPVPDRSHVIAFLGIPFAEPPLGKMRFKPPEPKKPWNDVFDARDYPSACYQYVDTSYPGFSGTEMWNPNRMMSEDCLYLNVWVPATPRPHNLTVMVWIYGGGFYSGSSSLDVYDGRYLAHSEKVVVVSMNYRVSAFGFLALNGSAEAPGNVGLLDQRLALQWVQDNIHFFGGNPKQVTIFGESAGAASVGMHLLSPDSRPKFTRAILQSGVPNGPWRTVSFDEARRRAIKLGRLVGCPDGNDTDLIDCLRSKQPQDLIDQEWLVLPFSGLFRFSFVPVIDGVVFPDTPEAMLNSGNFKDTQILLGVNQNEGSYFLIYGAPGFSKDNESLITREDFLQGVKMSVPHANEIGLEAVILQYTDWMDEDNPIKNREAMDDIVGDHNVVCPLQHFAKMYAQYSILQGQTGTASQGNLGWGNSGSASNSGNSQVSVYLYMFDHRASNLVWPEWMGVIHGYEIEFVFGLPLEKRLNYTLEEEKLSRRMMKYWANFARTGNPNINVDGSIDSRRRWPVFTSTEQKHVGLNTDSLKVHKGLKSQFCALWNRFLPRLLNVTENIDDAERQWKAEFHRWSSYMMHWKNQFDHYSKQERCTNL
# Chain of butyrylcholinesterase (BChE) (P81908 whole entry): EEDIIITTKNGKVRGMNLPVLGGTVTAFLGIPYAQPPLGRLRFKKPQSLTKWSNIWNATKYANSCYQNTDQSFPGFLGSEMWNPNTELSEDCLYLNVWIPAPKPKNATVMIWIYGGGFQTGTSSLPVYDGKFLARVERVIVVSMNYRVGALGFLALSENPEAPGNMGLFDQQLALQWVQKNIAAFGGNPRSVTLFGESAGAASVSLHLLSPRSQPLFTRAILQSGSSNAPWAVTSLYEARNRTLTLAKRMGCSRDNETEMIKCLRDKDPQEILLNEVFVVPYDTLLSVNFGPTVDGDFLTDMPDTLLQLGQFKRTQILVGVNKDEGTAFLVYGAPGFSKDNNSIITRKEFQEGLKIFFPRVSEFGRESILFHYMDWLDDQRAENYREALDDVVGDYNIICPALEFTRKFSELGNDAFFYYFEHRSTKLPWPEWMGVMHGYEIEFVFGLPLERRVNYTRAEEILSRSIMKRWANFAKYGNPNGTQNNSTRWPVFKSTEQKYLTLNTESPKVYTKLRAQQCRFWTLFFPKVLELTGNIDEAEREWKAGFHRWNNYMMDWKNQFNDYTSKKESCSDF
structure (smiles),measurement,setting,value
"O=C(O)Cc1ccccc1Cl [L^1, 2-chlorophenyl acetic acid]",inhibition at 62.5 µg/mL,"[1]; Comp. Conc. 62.5 µg/mL, n = 3",58.15 ± 0.22%
same,inhibition at 125 µg/mL,"[1]; Comp. Conc. 125 µg/mL, n = 3",63.4 ± 0.71%
same,inhibition at 250 µg/mL,"[1]; Comp. Conc. 250 µg/mL, n = 3",68.39 ± 0.35%
same,inhibition at 500 µg/mL,"[1]; Comp. Conc. 500 µg/mL, n = 3",73.42 ± 0.12%
same,inhibition at 1000 µg/mL,"[1]; Comp. Conc. 1000 µg/mL, n = 3",77.73 ± 0.03%
same,IC50,"[1]; read-out: IC50, inhibition of butyrylcholinesterase (converted)",258 µM
same,inhibition at 62.5 µg/mL,"[2]; Comp. Conc. 62.5 µg/mL, n = 3",50.35 ± 0.11%
same,inhibition at 125 µg/mL,"[2]; Comp. Conc. 125 µg/mL, n = 3",54.02 ± 0.24%
same,inhibition at 250 µg/mL,"[2]; Comp. Conc. 250 µg/mL, n = 3",57.34 ± 0.35%
same,inhibition at 500 µg/mL,"[2]; Comp. Conc. 500 µg/mL, n = 3",62.29 ± 0.32%
same,inhibition at 1000 µg/mL,"[2]; Comp. Conc. 1000 µg/mL, n = 3",65.39 ± 0.4%
"O=C(O)Cc1cccc(Cl)c1 [L^2, 3-chlorophenyl acetic acid]",IC50,[1],234 µM
same,inhibition at 62.5 µg/mL,[1],58.15 ± 0.22%
same,inhibition at 125 µg/mL,[1],63.4 ± 0.71%
same,inhibition at 250 µg/mL,[1],68.39 ± 0.35%
same,inhibition at 500 µg/mL,[1],73.42 ± 0.12%
same,inhibition at 1000 µg/mL,[1],77.73 ± 0.03%
same,IC50,[2],234 µM
same,inhibition at 62.5 µg/mL,[2],50.35 ± 0.11%
same,inhibition at 125 µg/mL,[2],54.02 ± 0.24%
same,inhibition at 250 µg/mL,[2],57.34 ± 0.35%
same,inhibition at 500 µg/mL,[2],62.29 ± 0.32%
same,inhibition at 1000 µg/mL,[2],65.39 ± 0.4%
